Laboratory results taken from PMC5012913 (Analytical biochemistry, 2016).
≈ marks a conversion by molar mass, not a printed value. Entries after “also recorded” stand apart in the source; their conditions may differ. Where two headings read alike, the source gives them in different places.

Experiments:
WecA = conditions: cited from earlier work
[1] = target: WecA enzyme (P-60 from E. coli B21WecA) (Escherichia coli, UniProt P0AC78); test: biochemical; format: biochemical
M. smegmatis WecA (P-60) = M. smegmatis WecA (P-60) (Mycolicibacterium smegmatis, UniProt A0R211); test: Kinetic parameter evaluation via WecA activity assay; format: biochemical; conditions: for Vmax for C50-P-P-Glucosamine-C6-FITC synthesis: crude membrane P-60, Michaelis-Menten plot
M. smegmatis WecA = target: T1, M. smegmatis WecA (Mycolicibacterium smegmatis, UniProt A0R211); format: biochemical
T1 sequence (A0R211 1-406): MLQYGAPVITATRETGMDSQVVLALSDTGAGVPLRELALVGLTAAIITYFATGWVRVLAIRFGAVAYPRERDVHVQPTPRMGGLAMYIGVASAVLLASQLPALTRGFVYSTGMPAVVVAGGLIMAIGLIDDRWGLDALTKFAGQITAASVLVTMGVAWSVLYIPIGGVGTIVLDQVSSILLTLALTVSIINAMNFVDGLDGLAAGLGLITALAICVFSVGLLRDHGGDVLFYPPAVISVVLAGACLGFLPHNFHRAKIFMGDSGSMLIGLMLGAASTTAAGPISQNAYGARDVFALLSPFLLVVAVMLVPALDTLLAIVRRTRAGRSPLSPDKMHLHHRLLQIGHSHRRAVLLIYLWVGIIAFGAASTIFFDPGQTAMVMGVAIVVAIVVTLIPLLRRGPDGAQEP

[2] = test system: non-replicating Mtb H37Rv (pFCA-luxAB); format: cell-based, M. tuberculosis H37Rv; conditions: for MICLORA/MICMABA: ratio of LORA MIC to MABA MIC
[3] = test system: intracellular Mtb CDC1551-tdTomato in J774A.1 cells; test: Killing effect against intracellular M. tuberculosis in J774A.1 macrophages; format: cell-based
M. tuberculosis = test: MIC determination against replicating Mtb; format: cell-based, Mycobacterium tuberculosis (H37Rv); conditions: aerobic
non-replicating Mtb = test: Wayne model under low-oxygen conditions; format: cell-based
MurX = target: T2, MurX (Mycolicibacterium smegmatis, UniProt A0R019); conditions: cited from earlier work
T2 sequence (A0R019 1-359): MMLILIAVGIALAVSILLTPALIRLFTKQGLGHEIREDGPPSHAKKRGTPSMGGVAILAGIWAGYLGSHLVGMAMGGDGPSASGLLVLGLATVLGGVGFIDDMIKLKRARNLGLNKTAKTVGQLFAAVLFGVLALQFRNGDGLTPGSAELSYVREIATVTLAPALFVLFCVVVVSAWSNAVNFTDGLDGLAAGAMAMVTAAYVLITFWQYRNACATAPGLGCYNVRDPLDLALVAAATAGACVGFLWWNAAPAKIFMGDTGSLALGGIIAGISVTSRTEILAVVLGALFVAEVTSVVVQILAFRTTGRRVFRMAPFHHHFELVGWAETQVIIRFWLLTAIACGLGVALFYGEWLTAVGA

CCCCc1ccc(NC(=O)C2=CCN(C)[C@@H]([C@H](O[C@@H]3O[C@H](CN)[C@@H](O)[C@H]3O)[C@H]3O[C@@H](n4ccc(=O)[nH]c4=O)[C@H](O)[C@@H]3O)C(=O)N2C)cc1 [CPZEN-45]
WecA inhibition (WecA): inhibit WecA at low concentrations

CO[C@H]1[C@@H](O)[C@H](n2ccc(=O)[nH]c2=O)O[C@@H]1[C@@H](O[C@H]1OC(C(=O)N[C@H]2CCCCNC2=O)=C[C@H](O)[C@@H]1O)C(N)=O [Capuramycin (6), Capuramycin]
WecA enzyme inhibitory activity ([1]; at 20 µg/mL): no WecA enzyme inhibitory activity
inhibition at 0.02 µg/mL ([1]; read-out: WecA inhibition (%)): 0%
inhibition at 2 µg/mL ([1]; read-out: WecA inhibition (%)): 0%
inhibition at 20 µg/mL ([1]; read-out: WecA inhibition (%)): 0%

CCCCCCCCCC(=O)O[C@@H]1[C@H](OC)[C@@H]([C@@H](O[C@H]2OC(C(=O)N[C@H]3CCC[C@@H](C)NC3=O)=C[C@H](O)[C@@H]2O)C(N)=O)O[C@H]1n1ccc(=O)[nH]c1=O [SQ641 (8)]
WecA enzyme inhibitory activity [1]: no WecA enzyme inhibitory activity

CC(=O)N[C@H]1[C@@H](OP(=O)(O)OP(=O)(O)OC[C@H]2O[C@@H](n3ccc(=O)[nH]c3=O)[C@H](O)[C@@H]2O)O[C@H](CO)[C@@H](O)[C@@H]1O [UDP-GlcNAc]
Km (M. smegmatis WecA (P-60); 140 µM exogenous decaprenyl phosphate (C50-P)): 110 µM

COC1C(C(OC2OC(C(=O)NC3CCCCNC3=O)=CC(O)C2O)C(N)=O)OC(n2ccc(=O)[nH]c2=O)C1OC (centres unmarked) [UT-01320 (12)]
IC50 against M. smegmatis wecA (M. smegmatis WecA): 0.0507 µg/mL (≈ 0.0869 µM)
WecA enzyme inhibitory activity [1]: inhibited completely
WecA inhibition (%) obtained via HPLC [1]: 100 (100) %
MIC (LORA), non-replicating Mtb ([2]; low-oxygen conditions): 2.58 µg/mL (≈ 4.42 µM)
MICLORA/MICMABA [2]: 1.72
Bactericidal effect against intracellular Mtb (words, comparison with TB drugs) ([3]; 2x and 4x MIC, up to 72h, J774A.1, listed as 12): equal to those of capreomycin; also recorded: faster killing effect than rifampicin
Time to kill Mtb in infected macrophages ([3]; x2 MICLORA, […]): ≤ 72 h
MIC (MABA), replicating Mtb (M. tuberculosis): 1.5 µg/mL (≈ 2.57 µM)
Effectiveness in non-replicating Mtb (Wayne model) (non-replicating Mtb): confirmed
MurX enzyme inhibitory activity (MurX; even at 400 µg/mL, as previously reported): did not exhibit MurX enzyme inhibitory activity

CO[C@H]1/C=C/O[C@@]2(C)Oc3c(C)c(O)c4c(O)c(c(/C=N/N5CCN(C)CC5)c(O)c4c3C2=O)NC(=O)/C(C)=C\C=C\[C@H](C)[C@H](O)[C@@H](C)[C@@H](O)[C@@H](C)[C@H](OC(C)=O)[C@@H]1C [rifampicin, reference compound]
MICLORA/MICMABA [2]: 7.35

Decaprenyl-P-P-Glucosamine-C6-FITC [C50-P-P-Glucosamine-C6-FITC (3)]
Vmax for C50-P-P-Glucosamine-C6-FITC synthesis (M. smegmatis WecA (P-60)): 0.404 µM/min
Vmax for C50-P-P-Glucosamine-C6-FITC synthesis (M. smegmatis WecA (P-60); listed as C50-P-P-Glucosamine-C6-FITC): 0.4041 µM/min

Tunicamycin [Tunicamycin (5), reference compound]
IC50 against M. smegmatis wecA (M. smegmatis WecA; UV-Vis dose-response curve): 0.59 µg/mL
IC50 against MurX (MurX): 2.31 µg/mL

UDP-Glucosamine-C6-FITC [UDP-Glucosamine-C6-FITC (1)]
Km (M. smegmatis WecA (P-60); with undecaprenyl phosphate): 196 µM
